Results taken from publication PMC12303080, “Diverse actions of 15 structurally unrelated mitochondrial uncouplers in cells and mice” (Molecular Metabolism, 2025).
Like-named read-outs stand apart in the source and are kept apart here.

Tests used:
CHO–K1 cells [1] = experiment: Seahorse XF-96 OCR dose response of 15 uncouplers (Figure 2); type: cell-based, Cricetulus griseus; conditions: for EC50: mean OCR (% basal) over first 24 min post injection, ± standard error, four-parameter fit
Protocol: Stock solutions of the uncouplers and/or Rotenone/Antimycin A were diluted in Seahorse media to give the final concentration indicated in Figure 1, Figure 2, Figure 3 with 0.4% (v/v) DMSO in wells.

CHO–K1 cells [2] = experiment: OCR in the absence or presence of oligomycin (Supplementary Fig. 6); type: cell-based, Cricetulus griseus; conditions: 1 μM oligomycin, uncoupler at lowest concentration yielding MaxOCR
Protocol: ATP synthase is the major conduit through which protons re-enter the mitochondrial matrix. Thus, we sought to investigate whether the selected uncouplers could stimulate oxygen consumption in the presence of the ATP synthase inhibitor oligomycin.
Supplementary Figure 6. […] At ~24 minutes, 1 μM of oligomycin or vehicle was injected, followed by the injection of the indicated uncoupler or vehicle at ~44 minutes, and 0.5 μM Rotenone / Antimycin A at ~88 minutes.

[3] = tested on: Arabidopsis thaliana cells; set-up: method as in PMID 22006339; conditions: cited from earlier work
[4] = Drug exposure / pharmacokinetics after oral gavage; conditions: male, C57BL/6J, mouse, plasma, 10 mg/kg
Protocol: Standards were prepared by spiking known concentrations (0.1, 1, 10, 100 and 1000 ng) of the uncoupler into whole blood prior to extraction. Plasma was obtained by centrifugation at 2000×g for 10 min at 4 °C. Seven microlitres (7 μL) of plasma was precipitated in 100 μL of 90% (v/v) acetonitrile and 10% (v/v) methanol. The resulting solution was vortexed for 5 s and then centrifuged at 21,130×g for 10 min at 4 °C. The supernatant was collected in auto-sampler vials for mass spectrometry.
Plasma concentration of mitochondrial uncouplers at indicated timepoints was determined by LC-MS/MS. Error bars show SEM, n = 3 per mitochondrial uncoupler.

db/db mice = experiment: Four-week treatment by admixture in chow, metabolic phenotyping; conditions: 4 weeks
Protocol: Body weight and glucose tolerance of male db/+ and db/db mice was assessed at 8–9 weeks of age to obtain baseline measurements. Db/+ were used as lean metabolically healthy controls and given ad libitum access to chow diet. Db/db mice were stratified into 12 groups using R (V4.4.0).
Mice were on treatment for a period of four weeks, during which body weight and food intake were measured daily. […] To counter this, food traps were placed beneath hoppers and leftover food in both the traps and hoppers was weighed daily. HbA1c was measured weekly. At the end of the treatment period, a glucose tolerance test was conducted, with fed and fasted bloods collected. At termination, blood was collected via cardiac puncture under isoflurane anaesthesia. Mice were euthanised by cervical dislocation and harvested tissues were flash-frozen in liquid nitrogen and stored at −80 °C.
Mice were fasted for 6 h and then received intraperitoneal injections of 20% (w/v) dextrose at a dose of 1 g/kg lean body mass. Blood glucose (BG) was measured at the time of fasting (random-fed BG) and then again prior to the commencement of the GTT following the 6-hour daytime fast (fasted BG). […] The rate of glucose clearance was measured using the trapezoidal method for calculation of area under the curve.
HbA1c was measured once weekly using an A1cNow + Portable HbA1c Test Kit. […] HbA1c was measured in the random-fed state.
A glucose tolerance test was conducted at the end of the treatment period, with random fed and 6-hour fasted bloods collected. Blood was collected in heparin tubes and kept on ice prior to centrifugation at 2000×g for 10 min at 4 °C to extract plasma. Plasma insulin concentration was determined using the Crystal Chem Ultra-Sensitive Mouse Insulin ELISA kit, according to manufacturers' instructions for the high range (1–64 ng/mL) assay.

humans = conditions: cited from earlier work
Swiss mice = tested on: Swiss mice; set-up: method as in PMID 18505478; conditions: ∼30–105 μg/kg/day in drinking water; cited from earlier work

O=[N+]([O-])c1ccc(NS(=O)(=O)c2ccc(Br)s2)cc1 [ES9, Endosidin 9]
EC50 (CHO–K1 cells [1]; CHO–K1, read-out: EC50 (increase of OCR)): 1.6 µM
Concentration range with sustained enhanced OCR (OCR ≥ 150% basal) (CHO–K1 cells [1]; CHO–K1, tested 0.32–200 μM): ≤ 100 µM
EC50 (CHO–K1 cells [1]; Cricetulus griseus, CHO-K1, 0.4 h, CHO–K1, read-out: EC50 (increase of OCR)): 1.61 ± 0.41 µM
Effect of oligomycin on uncoupler-stimulated OCR (CHO–K1 cells [2]): largely unaffected by the presence of oligomycin
Concentration increasing respiration (as low as) [3]: Endosidin 9 (ES9) • ES9 has not been tested in mouse models of metabolic disease. It was identified in a chemical library screen for inhibitors of endomembrane trafficking and increased respiration in Arabidopsis thaliana cells at concentrations as low as 1 μM [71].
Cmax [4]: 72.3 µM
Gastrocnemius weight vs control (db/db mice; 0.015% in chow): significantly larger gastrocnemius
Gastrocnemius weight vs control (db/db mice; 0.03% in chow): significantly larger gastrocnemius
Increase of total liver cholesterol content vs db/db control (db/db mice; 0.03% in chow): ~1.7 fold
Post-treatment GTT AUC lower than control group (db/db mice; 0.03% in chow): ~35%
Body weight / weight gain vs db/db controls (db/db mice; 0.15% BAM15, 0.02% OPC-163493, 0.015% and 0.03% ES9, NTZ and NEN both doses): non-significant trend for increased weight gain
GTT ΔAUC (post minus pre-treatment) (db/db mice; 0.15% and 0.2% BAM15, printed 0.3% ES9): statistically significant protection from worsening glucose tolerance
Blood glucose, HbA1c, glucose tolerance vs control (db/db mice; NEN both doses, 0.01% OPC, 0.015% ES9, 0.2% NTZ): did not have significantly lower random-fed or 6-hour fasted blood glucose
HbA1c (db/db mice; both doses of BAM15, printed 0.3% ES9, 0.4% NTZ): lowered HbA1c levels
Fasting and random fed blood glucose (db/db mice; either dose of BAM15, high dose ES9, high dose NTZ): partial efficacy
Increase of liver triglyceride concentration vs db/db controls (db/db mice; high dose ES9 (0.03%)): ~2.7 fold
Increase of total liver triglyceride content vs db/db controls (db/db mice; high dose ES9 (0.03%)): ~3.4 fold
Liver triglyceride concentration vs db/db controls (db/db mice; lower dose ES9 (0.015%)): significantly increased liver triglyceride concentration
Increase in liver wet weight vs db/db control (db/db mice; printed 0.3% ES9 in chow): ~25%

O=[N+]([O-])c1ccc(O)c([N+](=O)[O-])c1 [DNP, 2,4-Dinitrophenol]
MaxOCR lower than that seen with BAM15 (CHO–K1 cells [1]; CHO–K1, Figure 2): ~27%
EC50 (CHO–K1 cells [1]; Cricetulus griseus, CHO-K1, 0.4 h, read-out: EC50 (increase of OCR), CHO–K1): 17 ± 1.18 µM
EC50 (CHO–K1 cells [1]; read-out: EC50 (increase of OCR), CHO–K1): 17 µM
Effect of oligomycin on uncoupler-stimulated OCR (CHO–K1 cells [2]): largely unaffected by the presence of oligomycin
Body weight lost per week (humans): 1.5 kg
Weight loss (humans): ≤ 1.5 kg/week
Increase in metabolic rate (humans; for every 100 mg ingested): 11%
Lifespan extension (Swiss mice): 7%
